US12209102B2, “Heterocyclic compounds and uses thereof” (Kumquat Biosciences Inc., priority 2022, dated 2025)

Columns and labels:
K-Ras G12D = biological target: T1, K-Ras G12D (Homo sapiens, UniProt P01116, G12D); assay: HTRF resonance energy transfer assay, K-Ras G12D / SOS1 interaction; type: biochemical; conditions: HTRF assay of Example 5; read-out: IC50 against K-Ras G12D
T1 construct: made in house; host or cells: E. coli BL21 (DE3)
In short: (§1)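 Compounds, tested in duplicate at 10 μM down to 0.01 μM, were read after about 10 min or more by HTRF as the 665/620 nm emission ratio (337 nm excitation) to derive IC50. This ratio reports FRET between an anti-GST-Eu donor on GST-K-Ras (wild-type or mutant) and an anti-6His-XL665 acceptor on His-hSOS1. Buffer: ~5 mM HEPES pH 7.4, 150 mM NaCl, 1 mM DTT, 0.05% BSA, 0.0025% Igepal.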

K-Ras G12S = biological target: T2, K-Ras G12S (Homo sapiens, UniProt P01116, G12S); assay: HTRF resonance energy transfer assay, K-Ras G12S / SOS1 interaction; type: biochemical; conditions: HTRF assay of Example 5; read-out: IC50 against K-Ras G12S
T2 construct: made in house; host or cells: E. coli BL21 (DE3)
In short: as §1

K-Ras G12V = biological target: T3, K-Ras G12V (Homo sapiens, UniProt P01116, G12V); assay: HTRF resonance energy transfer assay, K-Ras G12V / SOS1 interaction; type: biochemical; conditions: HTRF assay of Example 5; read-out: IC50 against K-Ras G12V
T3 construct: made in house; host or cells: E. coli BL21 (DE3)
In short: as §1

SW620 cells = assay: Ras cellular assay, growth of cells with K-Ras G12V mutation (CellTiter-Glo); type: cell-based; conditions: Homo sapiens, SW-620; cell growth, Example 9, G12V mutation; read-out: IC50 against SW620 cells
In short: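 IC50 values came from a four-parameter fit of CellTiter-Glo viability, read roughly 6 days after dosing with e.g. a 10-point threefold dilution series. G12V-mutant SW620 cells (e.g. 800 per well) had been plated the previous day in RPMI-1640/10% heat-inactivated FBS, on tissue culture-treated or ultra-low attachment plates.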

A549 cells = assay: Ras cellular assay, growth of cells with K-Ras G12S mutation (CellTiter-Glo); type: cell-based; conditions: Homo sapiens, cell growth, Example 9, G12S mutation, read-out: IC50 against A549 cells
In short: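 Growth inhibition IC50 values come from four-parameter fits of CellTiter-Glo luminescence, read about 6 days after compound addition. G12S-mutant A549 cells (e.g. 800/well, RPMI-1640 + 10% heat-inactivated FBS) were plated in tissue-culture-treated or ultra-low-attachment 384-well format. Dosing began the following day with serial dilutions, e.g. 10 points, 3-fold.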

K-Ras WT = biological target: T4, K-Ras WT (Homo sapiens, UniProt P01116); assay: HTRF resonance energy transfer assay, K-Ras WT / SOS1 interaction; type: biochemical; conditions: HTRF assay of Example 5; read-out: IC50 against K-Ras WT
T4 construct: made in house; host or cells: E. coli BL21 (DE3)
In short: as §1

T3 sequence (P01116 1-188 isoform P01116-2 G12V): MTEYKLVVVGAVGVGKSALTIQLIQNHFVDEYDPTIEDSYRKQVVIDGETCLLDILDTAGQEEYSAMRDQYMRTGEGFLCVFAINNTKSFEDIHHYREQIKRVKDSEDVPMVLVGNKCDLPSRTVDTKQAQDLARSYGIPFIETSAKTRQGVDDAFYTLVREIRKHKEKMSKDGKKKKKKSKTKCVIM
T1 sequence (P01116 1-188 isoform P01116-2 G12D): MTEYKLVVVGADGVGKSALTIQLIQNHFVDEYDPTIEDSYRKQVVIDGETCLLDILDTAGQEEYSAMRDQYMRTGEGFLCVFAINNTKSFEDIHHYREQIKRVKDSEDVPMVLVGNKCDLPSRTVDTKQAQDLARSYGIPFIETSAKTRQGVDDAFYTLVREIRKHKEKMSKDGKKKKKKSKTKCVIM
T4 sequence (P01116 1-188 isoform P01116-2): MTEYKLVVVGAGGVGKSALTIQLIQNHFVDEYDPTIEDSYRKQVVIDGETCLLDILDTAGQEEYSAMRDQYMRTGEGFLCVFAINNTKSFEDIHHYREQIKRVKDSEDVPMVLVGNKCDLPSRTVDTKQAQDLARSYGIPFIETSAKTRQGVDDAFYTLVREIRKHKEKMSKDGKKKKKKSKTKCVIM
T2 sequence (P01116 1-188 isoform P01116-2 G12S): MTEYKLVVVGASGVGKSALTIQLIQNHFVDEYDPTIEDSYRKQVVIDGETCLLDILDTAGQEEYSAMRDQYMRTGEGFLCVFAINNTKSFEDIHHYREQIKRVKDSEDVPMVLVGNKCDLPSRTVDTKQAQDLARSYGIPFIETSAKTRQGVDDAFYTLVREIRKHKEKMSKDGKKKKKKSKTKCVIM

CC(=O)NC1CCC(N2CCOc3c(Cl)c(-c4ccc(F)c5sc(N)c(C#N)c45)c(F)c4nc(OC[C@@]56CCCN5C[C@H](F)C6)nc2c34)C1 (stereo partly drawn) [Compound 781, N-(3-(9-(2-amino-3-cyano-7-fluorobenzo[b]thiophen-4-yl)-8-chloro-10-fluoro-2-(((2R,7aS)-2-fluorotetrahydro-1H-pyrrolizin-7a(5H)-yl)methoxy)-5,6-dihydro-4H-[1,4]oxazepino[5,6,7-de]quinazolin-4-yl)cyclopentyl)acetamide]
IC50 (K-Ras G12D): < 0.1 µM
IC50 (K-Ras G12S): < 0.1 µM
IC50 (K-Ras G12V): < 0.1 µM
IC50 (SW620 cells): < 5 µM
IC50 (A549 cells): < 5 µM
IC50 (K-Ras WT): < 0.1 µM

N#Cc1c(N)sc2c(F)ccc(-c3c(Cl)c4c5c(nc(OC[C@@]67CCCN6C[C@H](F)C7)nc5c3F)N(C3CCOCC3)CCO4)c12 [Compound 813, 2-amino-4-(8-chloro-10-fluoro-2-(((2R,7aS)-2-fluorotetrahydro-1H-pyrrolizin-7a(5H)-yl)methoxy)-4-(tetrahydro-2H-pyran-4-yl)-5,6-dihydro-4H-[1,4]oxazepino[5,6,7-de]quinazolin-9-yl)-7-fluorobenzo[b]thiophene-3-carbonitrile]
IC50 (K-Ras G12D): < 0.1 µM
IC50 (K-Ras G12S): < 0.1 µM
IC50 (K-Ras G12V): < 0.1 µM
IC50 (SW620 cells): < 5 µM
IC50 (A549 cells): < 5 µM
IC50 (K-Ras WT): < 0.1 µM

N#Cc1c(N)sc2c(F)ccc(-c3c(Cl)c4c5c(nc(OC[C@@]67CCCN6C[C@H](F)C7)nc5c3F)N(C3CCC(NC=O)C3)CCO4)c12 (stereo partly drawn) [Compound 829, N-(3-(9-(2-amino-3-cyano-7-fluorobenzo[b]thiophen-4-yl)-8-chloro-10-fluoro-2-(((2R,7aS)-2—fluorotetrahydro-1H-pyrrolizin-7a(5H)-yl)methoxy)-5,6-dihydro-4H-[1,4]oxazepino[5,6,7-de]quinazolin-4-yl)cyclopentyl)formamide]
IC50 (K-Ras G12D): < 0.1 µM
IC50 (K-Ras G12S): < 0.1 µM
IC50 (K-Ras G12V): < 0.1 µM
IC50 (SW620 cells): < 5 µM
IC50 (A549 cells): < 5 µM
IC50 (K-Ras WT): < 0.1 µM

N#Cc1c(N)sc2c(F)ccc(-c3c(Cl)c4c5c(nc(OC[C@@]67CCCN6C[C@H](F)C7)nc5c3F)N(C3CC(NC=O)C3)CCO4)c12 (stereo partly drawn) [Compound 836, N-(3-(9-(2-amino-3-cyano-7-fluorobenzo[b]thiophen-4-yl)-8-chloro-10-fluoro-2-(((2R,7aS)-2-fluorotetrahydro-1H-pyrrolizin-7a(5H)-yl)methoxy)-5,6-dihydro-4H-[1,4]oxazepino[5,6,7-de]quinazolin-4-yl)cyclobutyl)formamide]
IC50 (K-Ras G12D): < 0.1 µM
IC50 (K-Ras G12S): < 0.1 µM
IC50 (K-Ras G12V): < 0.1 µM
IC50 (SW620 cells): < 5 µM
IC50 (A549 cells): < 5 µM
IC50 (K-Ras WT): < 0.1 µM

N#CCCCN1CCOc2c(Cl)c(-c3ccc(F)c4sc(N)c(C#N)c34)c(F)c3nc(OC[C@@]45CCCN4C[C@H](F)C5)nc1c23 [Compound 837, 2-amino-4-(8-chloro-4-(3-cyanopropyl)-10-fluoro-2-(((2R,7aS)-2-fluorotetrahydro-1H-pyrrolizin-7a(5H)-yl)methoxy)-5,6-dihydro-4H-[1,4]oxazepino[5,6,7-de]quinazolin-9-yl)-7-fluorobenzo[b]thiophene-3-carbonitrile]
IC50 (K-Ras G12D): < 0.1 µM
IC50 (K-Ras G12S): < 0.1 µM
IC50 (K-Ras G12V): < 0.1 µM
IC50 (SW620 cells): < 5 µM
IC50 (A549 cells): < 5 µM
IC50 (K-Ras WT): < 0.1 µM

N#Cc1c(N)sc2c(F)ccc(-c3c(Cl)c4c5c(nc(OC[C@@]67CCCN6C[C@H](F)C7)nc5c3F)N(C3CCCCC3O)CCO4)c12 (stereo partly drawn) [Compound 838, 2-amino-4-(8-chloro-10-fluoro-2-(((2R,7aS)-2-fluorotetrahydro-1H-pyrrolizin-7a(5H)-yl)methoxy)-4-(2-hydroxycyclohexyl)-5,6-dihydro-4H-[1,4]oxazepino[5,6,7-de]quinazolin-9-yl)-7-fluorobenzo[b]thiophene-3-carbonitrile]
IC50 (K-Ras G12D): < 0.1 µM
IC50 (K-Ras G12S): < 0.1 µM
IC50 (K-Ras G12V): < 0.1 µM
IC50 (SW620 cells): < 5 µM
IC50 (A549 cells): < 5 µM
IC50 (K-Ras WT): < 0.1 µM

C[C@H](Oc1nc2c3c(c(Cl)c(-c4ccc(F)c5sc(N)c(C#N)c45)c(F)c3n1)OCCN2C1CCN(C(=O)C2CC2C#N)CC1)[C@@H]1CCCN1C (stereo partly drawn) [Compound 839, 2-amino-4-(8-chloro-4-(1-(trans-2-cyanocyclopropane-1-carbonyl)piperidin-4-yl)-10-fluoro-2-((S)-1-((S)-1-methylpyrrolidin-2-yl)ethoxy)-5,6-dihydro-4H-[1,4]oxazepino[5,6,7-de]quinazolin-9-yl)-7-fluorobenzo[b]thiophene-3-carbonitrile]
IC50 (K-Ras G12D): < 0.1 µM
IC50 (K-Ras G12S): < 0.1 µM
IC50 (K-Ras G12V): < 0.1 µM
IC50 (SW620 cells): < 5 µM
IC50 (A549 cells): < 5 µM
IC50 (K-Ras WT): < 0.1 µM

CNC(=O)C1CCCC(N2CCOc3c(Cl)c(-c4ccc(F)c5sc(N)c(C#N)c45)c(F)c4nc(OC[C@@]56CCCN5C[C@H](F)C6)nc2c34)C1 (stereo partly drawn) [Compound 841, 3-(9-(2-amino-3-cyano-7-fluorobenzo[b]thiophen-4-yl)-8-chloro-10-fluoro-2-(((2R,7aS)-2-fluorotetrahydro-1H-pyrrolizin-7a(5H)-yl)methoxy)-5,6-dihydro-4H-[1,4]oxazepino[5,6,7-de]quinazolin-4-yl)-N-methylcyclohexane-1-carboxamide]
IC50 (K-Ras G12D): < 0.1 µM
IC50 (K-Ras G12S): < 0.1 µM
IC50 (K-Ras G12V): < 0.1 µM
IC50 (SW620 cells): < 5 µM
IC50 (A549 cells): < 5 µM
IC50 (K-Ras WT): < 0.1 µM

CNC(=O)C1CC(N2CCOc3c(Cl)c(-c4ccc(F)c5sc(N)c(C#N)c45)c(F)c4nc(OC[C@@]56CCCN5C[C@H](F)C6)nc2c34)C1 (stereo partly drawn) [Compound 859, 3-(9-(2-amino-3-cyano-7-fluorobenzo[b]thiophen-4-yl)-8-chloro-10-fluoro-2-(((2R,7aS)-2-fluorotetrahydro-1H-pyrrolizin-7a(5H)-yl)methoxy)-5,6-dihydro-4H-[1,4]oxazepino[5,6,7-de]quinazolin-4-yl)-N-methylcyclobutane-1-carboxamide]
IC50 (K-Ras G12D): < 0.1 µM
IC50 (K-Ras G12S): < 0.1 µM
IC50 (K-Ras G12V): < 0.1 µM
IC50 (SW620 cells): < 5 µM
IC50 (A549 cells): < 5 µM
IC50 (K-Ras WT): < 0.1 µM

C[C@H](Oc1nc2c3c(c(Cl)c(-c4ccc(F)c5sc(N)c(C#N)c45)c(F)c3n1)OCCN2C1CCCN(C(=O)C2CCC2)C1)[C@@H]1CCCN1C (stereo partly drawn) [Compound 862, 2-amino-4-(8-chloro-4-(1-(cyclobutanecarbonyl)piperidin-3-yl)-10-fluoro-2-((S)-1-((S)-1-methylpyrrolidin-2-yl)ethoxy)-5,6-dihydro-4H-[1,4]oxazepino[5,6,7-de]quinazolin-9-yl)-7-fluorobenzo[b]thiophene-3-carbonitrile]
IC50 (K-Ras G12D): < 0.1 µM
IC50 (K-Ras G12S): < 0.1 µM
IC50 (K-Ras G12V): < 0.1 µM
IC50 (SW620 cells): < 5 µM
IC50 (A549 cells): < 5 µM
IC50 (K-Ras WT): < 0.1 µM

C[C@H](Oc1nc2c3c(c(Cl)c(-c4ccc(F)c5sc(N)c(C#N)c45)c(F)c3n1)OCCN2C1CCCOC1)[C@@H]1CCCN1C (stereo partly drawn) [Compound 880, 2-amino-4-(8-chloro-10-fluoro-2-((S)-1-((S)-1-methylpyrrolidin-2-yl)ethoxy)-4-(tetrahydro-2H-pyran-3-yl)-5,6-dihydro-4H-[1,4]oxazepino[5,6,7-de]quinazolin-9-yl)-7-fluorobenzo[b]thiophene-3-carbonitrile]
IC50 (K-Ras G12D): < 0.1 µM
IC50 (K-Ras G12S): < 0.1 µM
IC50 (K-Ras G12V): < 0.1 µM
IC50 (SW620 cells): < 5 µM
IC50 (A549 cells): < 5 µM
IC50 (K-Ras WT): < 0.1 µM

COCC1COc2c(Cl)c(-c3ccc(F)c4sc(N)c(C#N)c34)c(F)c3nc(OC[C@@]45CCCN4C[C@H](F)C5)nc(c23)N1C (stereo partly drawn) [Compound 887, 2-amino-4-(8-chloro-10-fluoro-2-(((2R,7aS)-2-fluorotetrahydro-1H-pyrrolizin-7a(5H)-yl)methoxy)-5-(methoxymethyl)-4-methyl-5,6-dihydro-4H-[1,4]oxazepino[5,6,7-de]quinazolin-9-yl)-7-fluorobenzo[b]thiophene-3-carbonitrile]
IC50 (K-Ras G12D): < 0.1 µM
IC50 (K-Ras G12S): < 0.1 µM
IC50 (K-Ras G12V): < 0.1 µM
IC50 (SW620 cells): < 5 µM
IC50 (A549 cells): < 5 µM
IC50 (K-Ras WT): < 0.1 µM

CN(CCN1CCOc2c(Cl)c(-c3ccc(F)c4sc(N)c(C#N)c34)c(F)c3nc(OC[C@@]45CCCN4C[C@H](F)C5)nc1c23)C(=O)C1CCC1 [Compound 895, N-(2-(9-(2-amino-3-cyano-7-fluorobenzo[b]thiophen-4-yl)-8-chloro-10-fluoro-2-(((2R,7aS)-2-fluorotetrahydro-1H-pyrrolizin-7a(5H)-yl)methoxy)-5,6-dihydro-4H-[1,4]oxazepino[5,6,7-de]quinazolin-4-yl)ethyl)-N-methylcyclobutanecarboxamide]
IC50 (K-Ras G12D): < 0.1 µM
IC50 (K-Ras G12S): < 0.1 µM
IC50 (K-Ras G12V): < 0.1 µM
IC50 (SW620 cells): < 5 µM
IC50 (A549 cells): < 5 µM
IC50 (K-Ras WT): < 0.1 µM
